In patent US9487504B2, “Imidazolyl analogs as syk inhibitors” (Merck Sharp & Dohme Corp., priority 2012, dated 2016):
pIC50: −log10 of the molar value.

Biological target: T1, recombinant human GST-Syk (Homo sapiens, UniProt P43405)
T1 construct: purchased Carna Biosciences 08-176
Assay: Homogeneous Time-Resolved Fluorescence (HTRF) assay for the recombinant human Syk enzyme
Format: biochemical
Settings: ATP 25 μM, 10-dose titration, read-out: rhSYK Activity
Protocol: Syk inhibition may be determined using the following assay protocol:
Homogeneous Time-Resolved Fluorescence (HTRF) Assay for the Recombinant Human Syk Enzyme:
A recombinant GST-hSyk fusion protein was used to measure potency of compounds to inhibit human Syk activity. The recombinant human GST-Syk (Carna Biosciences #08-176) ([…]) was incubated with various concentrations of the inhibitor diluted in DMSO (0.1% final concentration) for 10 minutes at room temperature in 15 mM Tris-HCl (pH 7.5), 0.01% tween 20, 2 mM DTT in 384 well plate format. To initiate the reaction the biotinylated substrate peptide (250 nM final concentration) that contains the phosphorylation site for Syk was added with magnesium (5 mM final concentration) and ATP (25 μM final concentration). Final volume of the reaction was 10 μL. Phosphorylation of the peptide was allowed to proceed for 45 minutes at room temperature. To quench the reaction and detect the phosphorylated product, 2 nM of a Europium-anti-phosphotyrosine antibody (Perkin Elmer #AD0161) and 70 nM SA-APC (Perkin-Elmer #CR130-100) were added together in 15 mM Tris pH 7.5, 40 mM EDTA, 0.01% tween 20. Final volume of the quenching solution was 10 μL. The resulting HTRF signal was measured after 30 minutes on an EnVision (Perkin-Elmer) reader using a time-resolved fluorescence protocol. IC50 was determined following 10-dose titration (10 μM to 0.508 nM) and four parameter logistic curve fitting using the Merck Assay Data Analyzer. The rhSyk activity (IC50) is expressed as +++ (100 nM or less), ++ (between 100 and 1000 nM), + (between 1 and 10 μM).

Row | SMILES | pIC50
1 | CCOC(=O)C(C)(C)[C@H]1CC[C@](O)(c2cn(-c3cc(C)cc(Nc4cc(C(F)(F)F)ccn4)n3)cn2)CC1 [Example 23, Ethyl 2-{cis-4-hydroxy-4-[1-(4-methyl-6-{[4-(trifluoromethyl)pyridin-2-yl]amino}pyridin-2-yl)-1H-imidazol-4-yl]cyclohexyl}-2-methylpropanoate] | ≥ 7.00
2 | CCOC(=O)C(C)(C)C1CCC(O)(c2cn(-c3cc(C)cc(Nc4cc(C(F)(F)F)ccn4)n3)cn2)CC1 (stereo not drawn) [Example 24, Ethyl 2-{trans-4-hydroxy-4-[1-(4-methyl-6-{[4-(trifluoromethyl)-pyridin-2-yl]amino}-pyridin-2-yl)-1H-imidazol-4-yl]-cyclohexyl}-2-methylpropanoate] | 6.00 to 7.00
3 | Cc1cc(Nc2cc(C(F)(F)F)ccn2)nc(-n2cnc([C@]3(O)CC[C@H](C(=O)O)CC3)c2)c1 [Example 26, trans-4-hydroxy-4-[1-(4-methyl-6-{[4-(trifluoromethyl)pyridin-2-yl]amino}pyridin-2-yl)-1H-imidazol-4-yl]cyclohexanecarboxylic acid] | ≥ 7.00
4 | Cc1cc(Nc2cc(C(F)(F)F)ccn2)nc(-n2cnc([C@]3(O)CC[C@@H](C(=O)O)CC3)c2)c1 [Example 27, cis-4-hydroxy-4-[1-(4-methyl-6-{[4-(trifluoromethyl)pyridin-2-yl]amino}pyridin-2-yl)-1H-imidazol-4-yl]cyclohexanecarboxylic acid] | ≥ 7.00
5 | CCOC(=O)[C@H]1CC[C@@](O)(c2cn(-c3cc(C)cc(Nc4cc(C(F)(F)F)ccn4)n3)cn2)CC1 [Example 28, Ethyl trans-4-hydroxy-4-[1-(4-methyl-6-{[4-(trifluoromethyl)pyridin-2-yl]amino}pyridin-2-yl)-1H-imidazol-4-yl]cyclohexane-carboxylate] | ≥ 7.00
6 | CCOC(=O)[C@H]1CC[C@](O)(c2cn(-c3cc(C)cc(Nc4cc(C(F)(F)F)ccn4)n3)cn2)CC1 [Example 29, Ethyl cis-4-hydroxy-4-[1-(4-methyl-6-{[4-(trifluoromethyl)pyridin-2-yl]amino}pyridin-2-yl)-1H-imidazol-4-yl]cyclohexane-carboxylate] | ≥ 7.00
7 | Cc1cc(Nc2nccc(C(F)(F)F)n2)cc(-n2cnc([C@]3(O)CC[C@@H](C(=O)N4CCOCC4)CC3)c2)c1 [Example 30, cis-1-[1-(3-methyl-5-{[4-(trifluoromethyl)pyrimidin-2-yl]amino}phenyl)-1H-imidazol-4-yl]-4-(morpholin-4-ylcarbonyl)cyclohexanol] | ≥ 7.00
8 | Cc1cc(Nc2nccc(C(F)(F)F)n2)cc(-n2cnc(C3(O)CCC(C(=O)N4CCCC4)CC3)c2)c1 (stereo not drawn) [Example 31, cis-1-[1-(3-methyl-5-{[4-(trifluoromethyl)pyrimidin-2-yl]amino}phenyl)-1H-imidazol-4-yl]-4-(pyrrolidin-1-ylcarbonyl)cyclohexanol] | ≥ 7.00
9 | Cc1cc(Nc2nccc(C(F)(F)F)n2)cc(-n2cnc([C@]3(O)CC[C@@H](C(=O)N(C)C)CC3)c2)c1 [Example 32, cis-4-hydroxy-N,N-dimethyl-4-[1-(3-methyl-5-{[4-(trifluoromethyl)-pyrimidin-2-yl]amino}-phenyl)-1H-imidazol-4-yl]cyclohexane-carboxamide] | ≥ 7.00
10 | Cc1cc(Nc2nccc(C(F)(F)F)n2)cc(-n2cnc([C@]3(O)CC[C@H](C(N)=O)CC3)c2)c1 [Example 33, trans-4-hydroxy-4-[1-(3-methyl-5-{[4-(trifluoro-methyl)pyrimidin-2-yl]amino}phenyl)-1H-imidazol-4-yl]-cyclohexanecarboxamide] | ≥ 7.00
11 | Cc1cc(Nc2nccc(C(F)(F)F)n2)cc(-n2cnc([C@]3(O)CC[C@@H](C(N)=O)CC3)c2)c1 [Example 34, cis-4-hydroxy-4-[1-(3-methyl-5-{[4-(trifluoromethyl)-pyrimidin-2-yl]amino}phenyl)-1H-imidazol-4-yl]-cyclohexanecarboxamide] | ≥ 7.00
12 | Cc1cc(Nc2nccc(C(F)(F)F)n2)cc(-n2cnc(C3(O)CCC(C(=O)O)CC3)c2)c1 (stereo not drawn) [Example 35, trans-4-hydroxy-4-[1-(3-methyl-5-[[4-(trifluoromethyl)pyrimidin-2-yl]amino}phenyl)-1H-imidazol-4-yl]cyclohexanecarboxylic acid] | ≥ 7.00
13 | CCOC(=O)C1CCC(O)(c2cn(-c3cc(C)cc(Nc4nccc(C(F)(F)F)n4)c3)cn2)CC1 (stereo not drawn) [Example 36, Ethyl trans-4-hydroxy-4-[1-(3-methyl-5-{[4-(trifluoromethyl)pyrimidin-2-yl]amino}phenyl)-1H-imidazol-4-yl]-cyclohexanecarboxylate] | ≥ 7.00
14 | Cc1cc(Nc2nccc(C(F)(F)F)n2)cc(-n2cnc([C@]3(O)CC[C@@H](O)CC3)c2)c1 [Example 37, Cis-1-[1-(3-methyl-5-{[4-(trifluoromethyl)pyrimidin-2-yl]amino}phenyl)-1H-imidazol-4-yl]cyclohexane-1,4-diol] | ≥ 7.00
15 | Cc1cc(Nc2nccc(C)n2)cc(-n2cnc([C@]3(O)CC[C@@H](O)CC3)c2)c1 [Example 38, Cis-1-(1-{3-methyl-5-[(4-methylpyrimidin-2-yl)amino]phenyl}-1H-imidazol-4-yl)cyclohexane-1,4-diol] | ≥ 7.00
16 | COc1ccnc(Nc2cc(C)cc(-n3cnc([C@]4(O)CC[C@@H](O)CC4)c3)c2)n1 [Example 39, cis-1-(1-{3-[(4-methoxypyrimidin-2-yl)amino]-5-methylphenyl}-1H-imidazol-4-yl)cyclohexane-1,4-diol] | ≥ 7.00
17 | Cc1cc(Nc2nccc(C3CC3)n2)cc(-n2cnc([C@]3(O)CC[C@@H](O)CC3)c2)c1 [Example 40, cis-1-(1-{3-[(4-cyclopropylpyrimidin-2-yl)amino]-5-methylphenyl}-1H-imidazol-4-yl)cyclohexane-1,4-diol] | ≥ 7.00
18 | COc1ccnc(Nc2cc(C)cc(-n3cnc(C4(O)CCC(OC(=O)c5ccccc5)CC4)c3)c2)n1 (stereo not drawn) [Example 41, cis-4-hydroxy-4-(1-{3-[(4-methoxypyrimidin-2-yl)amino]-5-methylphenyl}-1H-imidazol-4-yl)cyclohexyl benzoate] | ≥ 7.00
19 | Cc1cc(Nc2nccc(C3CC3)n2)cc(-n2cnc([C@]3(O)CC[C@@H](OC(=O)c4ccccc4)CC3)c2)c1 [Example 42, cis-4-(1-{3-[(4-cyclopropylpyrimidin-2-yl)amino]-5-methylphenyl}-1H-imidazol-4-yl)-4-hydroxycyclohexyl benzoate] | ≥ 7.00
20 | Cc1cc(Nc2cc(C)c(F)cn2)nc(-n2cnc([C@]3(O)CC[C@@H](O)CC3)c2)c1 [Example 43, cis-1-(1-{6-[(5-fluoro-4-methylpyridin-2-yl)amino]-4-methylpyridin-2-yl}-1H-imidazol-4-yl)cyclohexane-1,4-diol] | ≥ 7.00
21 | Cc1cc(Nc2cc(C)c(Cl)cn2)nc(-n2cnc([C@]3(O)CC[C@@H](O)CC3)c2)c1 [Example 44, cis-1-(1-{6-[(5-chloro-4-methylpyridin-2-yl)amino]-4-methylpyridin-2-yl}-1H-imidazol-4-yl)cyclohexane-1,4-diol] | ≥ 7.00
22 | Cc1cc(Nc2cc(C3CC3)ccn2)nc(-n2cnc([C@]3(O)CC[C@@H](O)CC3)c2)c1 [Example 45, cis-1-(1-{6-[(4-cyclopropylpyridin-2-yl)amino]-4-methylpyridin-2-yl}-1H-imidazol-4-yl)cyclohexane-1,4-diol] | ≥ 7.00
23 | Cc1ccnc(Nc2cc(C)cc(-n3cnc([C@]4(O)CC[C@@H](O)CC4)c3)n2)c1 [Example 46, cis-1-(1-{4-methyl-6-[(4-methylpyridin-2-yl)amino]pyridin-2-yl}-1H-imidazol-4-yl)cyclohexane-1,4-diol] | ≥ 7.00
24 | Cc1cc(Nc2cc(C(C)(C)C)ccn2)nc(-n2cnc([C@]3(O)CC[C@@H](O)CC3)c2)c1 [Example 47, cis-1-(1-{6-[(4-tert-butylpyridin-2-yl)amino]-4-methylpyridin-2-yl}-1H-imidazol-4-yl)cyclohexane-1,4-diol] | ≥ 7.00
25 | Cc1cc(Nc2cc(C)c(F)cn2)nc(-n2cnc([C@]3(O)CC[C@@H](OC(=O)c4ccccc4)CC3)c2)c1 [Example 48, cis-4-(1-{6-[(5-fluoro-4-methylpyridin-2-yl)amino]-4-methylpyridin-2-yl}-1H-imidazol-4-yl)-4-hydroxycyclohexyl benzoate] | ≥ 7.00
26 | Cc1cc(Nc2cc(C)c(Cl)cn2)nc(-n2cnc([C@]3(O)CC[C@@H](OC(=O)c4ccccc4)CC3)c2)c1 [Example 49, cis-4-(1-{6-[(5-chloro-4-methylpyridin-2-yl)amino]-4-methylpyridin-2-yl}-1H-imidazol-4-yl)-4-hydroxycyclohexyl benzoate] | 6.00 to 7.00
27 | Cc1cc(Nc2cc(C3CC3)ccn2)nc(-n2cnc([C@]3(O)CC[C@@H](OC(=O)c4ccccc4)CC3)c2)c1 [Example 50, cis-4-(1-{6-[(4-cyclopropylpyridin-2-yl)amino]-4-methylpyridin-2-yl}-1H-imidazol-4-yl)-4-hydroxycyclohexyl benzoate] | ≥ 7.00

Same assay, conditions: ATP 25 μM, 10-dose titration, read-out: rhSYK IC50

Row | SMILES | pIC50
28 | Cc1cc(Nc2cc(C(F)(F)F)ccn2)nc(-n2cnc([C@]3(O)CC[C@@H](C(=O)O)CC3)c2)c1 [Example 27, cis-4-hydroxy-4-[1-(4-methyl-6-{[4-(trifluoromethyl)pyridin-2-yl]amino}pyridin-2-yl)-1H-imidazol-4-yl]cyclohexanecarboxylic acid] | 9.12
29 | Cc1cc(Nc2nccc(C(F)(F)F)n2)cc(-n2cnc([C@]3(O)CC[C@@H](O)CC3)c2)c1 [Example 37, Cis-1-[1-(3-methyl-5-{[4-(trifluoromethyl)pyrimidin-2-yl]amino}phenyl)-1H-imidazol-4-yl]cyclohexane-1,4-diol] | 8.43
30 | Cc1cc(Nc2cc(C3CC3)ccn2)nc(-n2cnc([C@]3(O)CC[C@@H](O)CC3)c2)c1 [Example 45, cis-1-(1-{6-[(4-cyclopropylpyridin-2-yl)amino]-4-methylpyridin-2-yl}-1H-imidazol-4-yl)cyclohexane-1,4-diol] | 8.86
